In general, IC50 refers to the concentration that gives 50% inhibition.

In test [1] the target is Ribosomal protein S6 kinase beta-1 (Homo sapiens, UniProt P23443, T412E). Description: P70S6K Enzyme Assay: P70S6K inhibitor compounds are diluted and plated in 96 well plates. A reaction mixture including the following components is then added to the compound plate to initiate the enzyme reaction; P70S6K (3 nM, T412E mutant, Millipore) is mixed with 24 uM ATP in an assay buffer containing 100 mM Hepes (pH 7.5), 5 mM MgCl2, 1 mM DTT, 0.015% Brij and 1 uM of the substrate peptide FITC-AHA-[…]-OH (derived from the S6 ribosomal protein sequence, FITC=fluorescein isothiocyanate, AHA=6-aminohexanoic acid). The reaction is incubated for 90 min at 25° C., before the addition of 10 mM EDTA to stop the reaction. The proportion of substrate and product (phosphorylated) peptide is analysed on a Caliper Life Sciences Lab Chip 3000, using a pressure of -1.4 psi, and upstream and downstream voltages of -3000 and -700 respectively. Product peaks are resolved before substrate peaks on the resulting chromatograms.

The target in test [2] is RAC-alpha serine/threonine-protein kinase (Homo sapiens, UniProt P31749). Description: AKT Enzyme Assay: A TTP Mosquito liquid handling instrument is used to place 125 nl of the appropriate concentration of inhibitor in 100% DMSO (for a dose response curve calculation) into each well of a 384-well plate. To this reaction components are added to a final volume of 12.5 µl: 0.1 ng/µl His-AKT (Full Length), (Invitrogen, Part # P2999, Lot #641228C). 160 uM ATP (Fluka, 02055) 1 mM DTT (Sigma, D0632) 1 mM MgCl2 (Sigma, M1028) 1 µM substrate peptide (sequence FITC-AHA-[…]-NH2), synthesized by Tufts Peptide Synthesis service. 100 mM HEPES pH 7.5 (Calbiochem, 391338)0.015% Brij-35 (Sigma, B4184)The reaction is incubated for 90 min at 25 C, and then stopped by the addition of 70 µl of Stop buffer (100 mM HEPES pH 7.5, 0.015% Brij-35, 10 mM EDTA (Sigma, E7889)).The plate is read on a Caliper LC 3000 in an Off-Chip mobility shift assay format, using the following parameters for a 12-sipper chip: screening pressure -2.3 psi, upstream voltage -500, and downstream voltage -3000.
Sequence of RAC-alpha serine/threonine-protein kinase (P31749 whole entry): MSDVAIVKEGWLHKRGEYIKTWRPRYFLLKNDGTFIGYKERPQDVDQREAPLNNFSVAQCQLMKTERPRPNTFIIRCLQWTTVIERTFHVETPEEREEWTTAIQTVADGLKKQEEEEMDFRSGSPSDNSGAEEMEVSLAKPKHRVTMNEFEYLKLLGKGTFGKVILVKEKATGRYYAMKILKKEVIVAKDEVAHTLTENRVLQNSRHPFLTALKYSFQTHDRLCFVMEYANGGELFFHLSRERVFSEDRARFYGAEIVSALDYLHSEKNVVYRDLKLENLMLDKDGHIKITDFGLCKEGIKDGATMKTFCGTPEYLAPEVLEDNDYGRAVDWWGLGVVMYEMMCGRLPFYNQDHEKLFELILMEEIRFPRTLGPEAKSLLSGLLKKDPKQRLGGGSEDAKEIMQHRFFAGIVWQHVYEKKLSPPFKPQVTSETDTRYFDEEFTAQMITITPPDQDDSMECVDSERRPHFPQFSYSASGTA

Sequence of Ribosomal protein S6 kinase beta-1 (P23443 whole entry T412E): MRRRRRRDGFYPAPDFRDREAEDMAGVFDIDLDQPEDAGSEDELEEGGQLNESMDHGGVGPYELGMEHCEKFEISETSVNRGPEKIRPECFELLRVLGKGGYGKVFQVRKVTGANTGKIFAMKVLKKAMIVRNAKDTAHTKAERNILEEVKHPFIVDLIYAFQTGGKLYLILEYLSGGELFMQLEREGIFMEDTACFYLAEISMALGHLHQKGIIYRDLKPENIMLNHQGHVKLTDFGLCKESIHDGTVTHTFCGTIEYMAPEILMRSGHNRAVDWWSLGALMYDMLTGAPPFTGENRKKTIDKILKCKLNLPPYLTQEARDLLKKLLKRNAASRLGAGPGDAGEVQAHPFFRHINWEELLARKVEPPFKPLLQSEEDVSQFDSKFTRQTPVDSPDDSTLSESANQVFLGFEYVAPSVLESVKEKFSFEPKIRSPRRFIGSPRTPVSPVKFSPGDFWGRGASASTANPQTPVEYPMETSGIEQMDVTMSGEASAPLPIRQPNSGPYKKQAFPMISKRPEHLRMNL

On to `CCc1c(N)ncnc1N1CCC(c2nc(-c3cccc(Cl)n3)cn2CCN2CCC2)CC1`, for which the figures for the IC50 in test [1] and in test [2] were 58 nM and 780 nM, respectively.

The values above are taken from ChEMBL document CHEMBL3886265, “Imidazole amines as modulators of kinase activity” (2015).
